Data from patent publication US10611740B2, “Aryl dihydro-2H-benzo[b][1,4]oxazine sulfonamide and related compounds for use as agonists of RORγ and the treatment of disease” (Lycera Corporation, priority 2015, dated 2020).
pEC50: −log10 of the molar value.

Legend:
RORγ-LBD = target: T1, RORγ-LBD (Homo sapiens, UniProt P51449); assay: RORγ-Ligand Binding Domain (LBD) TR-FRET Assay; format: biochemical;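 on TR-FRET Assay Max Response: 665/615 nm ratio relative to signal without ursolic acid or compound set at 100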
T1 construct: made in house; host or cells: SF9 cells (baculovirus)
T1 sequence (P51449 269-508 limits assumed): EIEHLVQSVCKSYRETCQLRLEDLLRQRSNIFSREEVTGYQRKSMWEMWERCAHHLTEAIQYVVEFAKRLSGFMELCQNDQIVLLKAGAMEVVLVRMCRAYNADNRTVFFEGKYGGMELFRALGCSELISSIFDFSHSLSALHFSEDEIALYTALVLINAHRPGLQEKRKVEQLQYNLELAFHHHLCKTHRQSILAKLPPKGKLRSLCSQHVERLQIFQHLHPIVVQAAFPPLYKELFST
Outline: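 His-tagged RORγ-LBD from SF9 baculovirus lysate, ~3 nM final, in 50 mM Tris pH 7.0, 50 mM KCl, 1 mM EDTA, 0.1 mM DTT, 0.01% BSA. Biotinylated SRC1 LXXLL peptide at 200 nM final with 2 μM ursolic acid; TR-FRET read-out, 1% DMSO final.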

Gal4-RORγ-LBD = target: T2, Gal4-RORγ-LBD (Homo sapiens, UniProt P51449); assay: Gal4-RORγ Luciferase Reporter Assay in HEK-293T Cells; format: cell-based; details: HEK-293 cells, luciferase reporter, with 2 μM ursolic acid
T2 construct: expressed in transfected cells; host or cells: HEK-293 cells (pcDNA3.1neo plasmid)
T2 sequence (P51449 269-508 limits assumed): T1 sequence (P51449 269-508 limits assumed)
Outline: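 HEK-293 cells were transiently co-transfected with Gal4-RORγ-LBD and pGL4.31 Gal4-luciferase, with ursolic acid added at 2 μM final. Compounds were incubated overnight at 37° C. in 0.2% DMSO and luminescence read with One-Glo. Max Response is the upper plateau of a 4-parameter logistic fit, with signal lacking ursolic acid or compound set to 100.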

| pEC50 (RORγ-LBD) | pEC50 (Gal4-RORγ-LBD) | Structure (SMILES) | TR-FRET Assay Max Response (RORγ-LBD) | Gal4-RORγ Assay Max Response (Gal4-RORγ-LBD) |
| --- | --- | --- | --- | --- |
| > 6.30 | > 6.30 | COc1ccc(-c2ccc3c(c2)N(S(=O)(=O)c2cccc(C(F)(F)F)c2)C[C@H](CCC(=O)O)O3)cc1Cl [Compound 2AN, (S)-3-(6-(3-chloro-4-methoxyphenyl)-4-((3-(trifluoromethyl)phenyl)-sulfonyl)-3,4-dihydro-2H-benzo[b][1,4]oxazin-2-yl)propanoic acid] | **** (The symbol “****” indicates a value greater than 200) | ** (The symbol “**” indicates a value in the range of greater than 90 to 150) |
| > 6.30 | > 6.30 | COc1cc(Cl)cc(-c2ccc3c(c2)N(S(=O)(=O)c2cccc(C(F)(F)F)c2)C[C@H](CCC(=O)O)O3)c1 [Compound 2AO, (S)-3-(6-(3-chloro-5-methoxyphenyl)-4-((3-(trifluoromethyl)phenyl)-sulfonyl)-3,4-dihydro-2H-benzo[b][1,4]oxazin-2-yl)propanoic acid] | **** (The symbol “****” indicates a value greater than 200) | *** (The symbol “***” indicates a value in the range of greater than 150 to 200) |
| > 6.30 | > 6.30 | O=C(O)CC[C@H]1CN(S(=O)(=O)c2cccc(C(F)(F)F)c2)c2cc(-c3cccc(OC(F)(F)F)c3)ccc2O1 [Compound 2AP, (S)-3-(6-(3-(trifluoromethoxy)-phenyl)-4-((3-(trifluoromethyl)-phenyl)sulfonyl)-3,4-dihydro-2H-benzo[b][1,4]oxazin-2-yl)propanoic acid] | **** (The symbol “****” indicates a value greater than 200) | ** (The symbol “**” indicates a value in the range of greater than 90 to 150) |
| 5.30 to 6.30 | 5.30 to 6.30 | Cn1cc(-c2ccc3c(c2)N(S(=O)(=O)c2cccc(C(F)(F)F)c2)C[C@H](CCC(=O)O)O3)cn1 [Compound 2AQ, (S)-3-(6-(1-methyl-1H-pyrazol-4-yl)-4-((3-(trifluoromethyl)-phenyl)sulfonyl)-3,4-dihydro-2H-benzo[b][1,4]oxazin-2-yl)propanoic acid] | **** (The symbol “****” indicates a value greater than 200) | * (The symbol “*” indicates a value in the range of 25 to 90) |
| > 6.30 | 5.30 to 6.30 | N#Cc1cccc(-c2ccc3c(c2)N(S(=O)(=O)c2cccc(C(F)(F)F)c2)C[C@H](CCC(=O)O)O3)c1 [Compound 2AT, (S)-3-(6-(3-cyanophenyl)-4-((3-(trifluoromethyl)phenyl)-sulfonyl)-3,4-dihydro-2H-benzo[b][1,4]oxazin-2-yl)propanoic acid] | **** (The symbol “****” indicates a value greater than 200) | ** (The symbol “**” indicates a value in the range of greater than 90 to 150) |
| > 6.30 | > 6.30 | Cc1ccc(F)cc1-c1ccc2c(c1)N(S(=O)(=O)c1cccc(C(F)(F)F)c1)C[C@H](CCC(=O)O)O2 [Compound 2BA, (S)-3-(6-(5-fluoro-2-methylphenyl)-4-((3-(trifluoromethyl)phenyl)sulfonyl)-3,4-dihydro-2H-benzo[b][1,4]oxazin-2-yl)propanoic acid] | **** (The symbol “****” indicates a value greater than 200) | ** (The symbol “**” indicates a value in the range of greater than 90 to 150) |
| > 6.30 | > 6.30 | COc1c(F)cc(F)cc1-c1ccc2c(c1)N(S(=O)(=O)c1cccc(C(F)(F)F)c1)C[C@H](CCC(=O)O)O2 [Compound 2BC, (S)-3-(6-(3,5-difluoro-2-methoxyphenyl)-4-((3-(trifluoromethyl)phenyl)-sulfonyl)-3,4-dihydro-2H-benzo[b][1,4]oxazin-2-yl)propanoic acid] | **** (The symbol “****” indicates a value greater than 200) | *** (The symbol “***” indicates a value in the range of greater than 150 to 200) |
| > 6.30 | > 6.30 | CCc1ccccc1-c1ccc2c(c1)N(S(=O)(=O)c1cccc(C(F)(F)F)c1)C[C@H](CCC(=O)O)O2 [Compound 2BD, (S)-3-(6-(2-ethylphenyl)-4-((3-(trifluoromethyl)phenyl)sulfonyl)-3,4-dihydro-2H-benzo[b][1,4]oxazin-2-yl)propanoic acid] | **** (The symbol “****” indicates a value greater than 200) | ** (The symbol “**” indicates a value in the range of greater than 90 to 150) |

Second part, the molecule before the results:

| Structure (SMILES) | pEC50 (RORγ-LBD) | pEC50 (Gal4-RORγ-LBD) | TR-FRET Assay Max Response (RORγ-LBD) | Gal4-RORγ Assay Max Response (Gal4-RORγ-LBD) |
| --- | --- | --- | --- | --- |
| O=C(O)CC[C@H]1CN(S(=O)(=O)c2cccc(C(F)(F)F)c2)c2cc(-c3cccc(Cl)c3Cl)ccc2O1 [Compound 2AL, (S)-3-(6-(2,3-dichlorophenyl)-4-((3-(trifluoromethyl)phenyl)-sulfonyl)-3,4-dihydro-2H-benzo[b][1,4]oxazin-2-yl)propanoic acid] | > 6.30 | > 6.30 | **** (The symbol “****” indicates a value greater than 200) | *** (The symbol “***” indicates a value in the range of greater than 150 to 200) |
| O=C(O)CC[C@H]1CN(S(=O)(=O)c2cccc(C(F)(F)F)c2)c2cc(-c3cc(Cl)ccc3Cl)ccc2O1 [Compound 2AM, (S)-3-(6-(2,5-dichlorophenyl)-4-((3-(trifluoromethyl)phenyl)-sulfonyl)-3,4-dihydro-2H-benzo[b][1,4]oxazin-2-yl)propanoic acid] | > 6.30 | > 6.30 | – | – |
| Cn1nccc1-c1ccc2c(c1)N(S(=O)(=O)c1cccc(C(F)(F)F)c1)C[C@H](CCC(=O)O)O2 [Compound 2AR, (S)-3-(6-(1-methyl-1H-pyrazol-5-yl)-4-((3-(trifluoromethyl)-phenyl)sulfonyl)-3,4-dihydro-2H-benzo[b][1,4]oxazin-2-yl)propanoic acid] | 5.30 to 6.30 | < 5.00 | * (The symbol “*” indicates a value in the range of 25 to 90) | – |
| CCOc1cccc(-c2ccc3c(c2)N(S(=O)(=O)c2cccc(C(F)(F)F)c2)C[C@H](CCC(=O)O)O3)c1 [Compound 2AS, (S)-3-(6-(3-ethoxyphenyl)-4-((3-(trifluoromethyl)phenyl)-sulfonyl)-3,4-dihydro-2H-benzo[b][1,4]-oxazin-2-yl)propanoic acid] | > 6.30 | 5.30 to 6.30 | **** (The symbol “****” indicates a value greater than 200) | ** (The symbol “**” indicates a value in the range of greater than 90 to 150) |
| O=C(O)CC[C@H]1CN(S(=O)(=O)c2cccc(C(F)(F)F)c2)c2cc(-c3cccc(O)c3)ccc2O1 [Compound 2AU, (S)-3-(6-(3-hydroxyphenyl)-4-((3-(trifluoromethyl)phenyl)-sulfonyl)-3,4-dihydro-2H-benzo[b][1,4]oxazin-2-yl)propanoic acid] | > 6.30 | 5.30 to 6.30 | *** (The symbol “***” indicates a value in the range of greater than 150 to 200) | * (The symbol “*” indicates a value in the range of 25 to 90) |
| CC(C)Oc1cccc(-c2ccc3c(c2)N(S(=O)(=O)c2cccc(C(F)(F)F)c2)C[C@H](CCC(=O)O)O3)c1 [Compound 2AV, (S)-3-(6-(3-isopropoxyphenyl)-4-((3-(trifluoromethyl)phenyl)-sulfonyl)-3,4-dihydro-2H-benzo[b][1,4]oxazin-2-yl)propanoic acid] | > 6.30 | 5.30 to 6.30 | **** (The symbol “****” indicates a value greater than 200) | * (The symbol “*” indicates a value in the range of 25 to 90) |
| O=C(O)CC[C@H]1CN(S(=O)(=O)c2cccc(C(F)(F)F)c2)c2cc(-c3ccccc3O)ccc2O1 [Compound 2AW, (S)-3-(6-(2-hydroxyphenyl)-4-((3-(trifluoromethyl)phenyl)-sulfonyl)-3,4-dihydro-2H-benzo[b][1,4]oxazin-2-yl)propanoic acid] | > 6.30 | 5.30 to 6.30 | **** (The symbol “****” indicates a value greater than 200) | ** (The symbol “**” indicates a value in the range of greater than 90 to 150) |
| Cc1cccc(-c2ccc3c(c2)N(S(=O)(=O)c2cccc(C(F)(F)F)c2)C[C@H](CCC(=O)O)O3)c1F [Compound 2AY, (S)-3-(6-(2-fluoro-3-methyl-phenyl)-4-((3-(trifluoro-methyl)phenyl)sulfonyl)-3,4-dihydro-2H-benzo[b][1,4]-oxazin-2-yl)propanoic acid] | > 6.30 | 5.30 to 6.30 | **** (The symbol “****” indicates a value greater than 200) | **** (The symbol “****” indicates a value greater than 200) |
| Cc1nnc(-c2ccc3c(c2)N(S(=O)(=O)c2cccc(C(F)(F)F)c2)C[C@H](CCC(=O)O)O3)s1 [Compound 2AZ, (S)-3-(6-(5-methyl-1,3,4-thiadiazol-2-yl)-4-((3-(trifluoromethyl)phenyl)-sulfonyl)-3,4-dihydro-2H-benzo[b][1,4]oxazin-2-yl)propanoic acid] | < 5.00 | < 5.00 | – | ** (The symbol “**” indicates a value in the range of greater than 90 to 150) |
